Measurements reported in patent publication US20240293351A1, “METHODS OF ADMINISTERING SYNTHETIC TRITERPENOIDS” (REATA PHARMACEUTICALS HOLDINGS, LLC, priority 2020, published 2024).
Several values for one entry are separate records, joined by “and”; a condition that tells them apart may be missing. Equal entries are not always repeated. Where two headings read alike, the source gives them in different places.

Columns and labels:
[1] = BEACON post-hoc review of EAC case packets for heart failure events within first four weeks; format: in vivo, human
Protocol: The first scheduled post-baseline assessment in BEACON was at Week 4. Since many of the heart failure events occurred prior to Week 4, the clinical database provides limited information to characterize these patients. Post-hoc review of the EAC case packets for heart failure cases that occurred prior to Week 4 was performed to assess clinical, vitals, laboratory, and imaging data collected at the time of the first heart failure event (Tables 13 and 14).
Baseline central laboratory values from the clinical database were compared to local laboratory values obtained on admission for heart failure that were included in the EAC packets.

[2] = Pharmacokinetic study 402-C-1102 in patients with type 2 diabetes and stage 3b/4 CKD (24-h urine); format: in vivo, human; details: 20 mg once daily 56 days
[3] = Open label dose-ranging study 402-C-0902 in type 2 diabetic patients with stage 3b-4 CKD; format: in vivo, human; design: ΔSBP, change from baseline / ΔDBP, change from baseline: unit not given beside the values
clinical = details: human, in vivo, po
[4] = 2.5 mg once daily 85 days, CKD Stage 3b/4, N = 14
[5] = 2.5 mg once daily 85 days, CKD Stage 3b, N = 10
[6] = 2.5 mg once daily 85 days, CKD Stage 4, N = 4
[7] = 5 mg once daily 85 days, CKD Stage 3b/4, N = 24
[8] = 5 mg once daily 85 days, CKD Stage 3b, N = 19
[9] = 5 mg once daily 85 days, CKD Stage 4, N = 5
[10] = 10 mg once daily 85 days, CKD Stage 3b/4, N = 24
[11] = 10 mg once daily 85 days, CKD Stage 3b, N = 20
[12] = 10 mg once daily 85 days, CKD Stage 4, N = 4
[13] = 15 mg once daily 85 days, CKD Stage 3b/4, N = 48
[14] = 15 mg once daily 85 days, CKD Stage 3b, N = 26
[15] = 15 mg once daily 85 days, CKD Stage 4, N = 22
[16] = 30 mg once daily 85 days, CKD Stage 3b/4, N = 12
[17] = 30 mg once daily 85 days, CKD Stage 3b, N = 3
[18] = 30 mg once daily 85 days, CKD Stage 4, N = 9
[19] = ITT N = 1088, adjudicated primary endpoints
[20] = post-hoc ITT, Observed N, randomized 1088
[21] = post-hoc, Age ≤ 75, randomized 786
[22] = post-hoc, BL ACR ≤ 300, eGFR > 20, BNP ≤ 200, randomized 209
[23] = post-hoc, BL ACR ≤ 1000, eGFR > 20, Age ≤ 75, randomized 368
[24] = post-hoc, BL ACR ≤ 1000, randomized 798
[25] = post-hoc, BL BNP ≤ 200, randomized 559
[26] = post-hoc, BL eGFR > 20, randomized 735
[27] = post-hoc, No h/o HF, randomized 922

## COC(=O)[C@]12CCC(C)(C)C[C@H]1[C@H]1C(=O)C=C3[C@@]4(C)C=C(C#N)C(=O)C(C)(C)[C@@H]4CC[C@@]3(C)[C@]1(C)CC2 [Bardoxolone methyl, methyl-2-cyano-3,12-dioxooleana-1,9-dien-28-oic acid]
[1]; n = 23
  LVEF at HF hospitalization, mean: 52% ±
[1]; n = 30
  Serum Sodium at HF hospitalization, mean: 139.0 mmol/L
  Serum Sodium Δ (HF vs baseline), mean: -1.0 mmol/L
[1]; n = 32
  Heart Rate at HF hospitalization, mean: 81 bpm
  Heart Rate Δ (HF vs baseline), mean: 14.5 bpm
[1]; n = 33
  SBP at HF hospitalization, mean: 154 mmHg
  SBP Δ (HF vs baseline), mean: 10.5 mmHg
[1]; n = 34
  DBP at HF hospitalization, mean: 75 mmHg
  DBP Δ (HF vs baseline), mean: 7.9 mmHg
  Serum Potassium at HF hospitalization, mean: 4.8 mmol/L
  Serum Potassium Δ (HF vs baseline), mean: 0.1 mmol/L
[1]; n = 38
  Serum Creatinine at HF hospitalization, mean: 2.7 mg/dL
  Serum Creatinine Δ (HF vs baseline), mean: -0.1 mg/dL
[2]; CKD Stage 3b, N = 9
  24-h Urinary Sodium, WK 8 Δ from baseline, mean: −12 mmol/24 h
  24-h Urine Volume, WK 8 Δ from baseline, mean: 355 mL
[2]; CKD Stage 4, N = 6
  24-h Urinary Sodium, WK 8 Δ from baseline, mean: −89 mmol/24 h
  24-h Urine Volume, WK 8 Δ from baseline, mean: -610 mL
[3]; [4]
  ΔDBP, change from baseline: 0.2 ± 1.8
  ΔSBP, change from baseline: 0.1 ± 4.2
[3]; [5]
  ΔDBP, change from baseline: 1 ± 2
  ΔSBP, change from baseline: 0 ± 4.4
[3]; [6]
  ΔDBP, change from baseline: −1.5 ± 3.9
  ΔSBP, change from baseline: 0.3 ± 11
[3]; [7]
  ΔDBP, change from baseline: −1.4 ± 1.5
  ΔSBP, change from baseline: −1.5 ± 2.3
[3]; [8]
  ΔDBP, change from baseline: −1.3 ± 1.4
  ΔSBP, change from baseline: −2.1 ± 2 ^
[3]; [9]
  ΔDBP, change from baseline: −1.4 ± 5.6
  ΔSBP, change from baseline: 0.5 ± 9.1
[3]; [10]
  ΔDBP, change from baseline: 0.3 ± 1.3
  ΔSBP, change from baseline: −2.4 ± 3.1
[3]; [11]
  ΔDBP, change from baseline: −0.3 ± 1.3
  ΔSBP, change from baseline: −4.2 ± 3.4
[3]; [12]
  ΔDBP, change from baseline: 3.6 ± 4.5
  ΔSBP, change from baseline: 6.1 ± 6.7
[3]; [13]
  ΔDBP, change from baseline: −1 ± 1.2
  ΔSBP, change from baseline: 1.1 ± 2.3
[3]; [14]
  ΔDBP, change from baseline: −1.3 ± 1.5
  ΔSBP, change from baseline: −2.2 ± 3.3
[3]; [15]
  ΔDBP, change from baseline: −0.6 ± 1.9
  ΔSBP, change from baseline: 5 ± 2.8
[3]; [16]
  ΔDBP, change from baseline: 3.2 ± 2.2
  ΔSBP, change from baseline: 7.2 ± 6.2
[3]; [17]
  ΔDBP, change from baseline: −1.8 ± 3.9
  ΔSBP, change from baseline: −0.4 ± 13.8
[3]; [18]
  ΔDBP, change from baseline: 4.7 ± 2.5
  ΔSBP, change from baseline: 9.7 ± 7.3
[3]; 2.5 to 30 mg, 85 consecutive days, amorphous dispersion formulation
  Blood pressure changes: no dose-related trend in blood pressure changes or change at any individual dose level was noted
[3]; SDD 2.5 mg QD 85 days, N = 14
  AE, SOC Card: Cardiac failure congestive, patients n (%): 0
  AE, SOC Card: Oedema peripheral, patients n (%): 0
  AE, SOC Genrl: Oedema peripheral, patients n (%): 0
  AE, SOC Metab: Oedema peripheral, patients n (%): 0
  AE, SOC Resp: Dyspnoea exertional, patients n (%): 1 (7)
  AE, SOC Resp: Dyspnoea, patients n (%): 0
  SAE, SOC Card: Cardiac failure congestive, patients n (%): 0
[3]; SDD 5 mg QD 85 days, N = 25
  AE, SOC Card: Cardiac failure congestive, patients n (%): 0
  AE, SOC Card: Oedema peripheral, patients n (%): 0
  AE, SOC Genrl: Oedema peripheral, patients n (%): 3 (12)
  AE, SOC Metab: Oedema peripheral, patients n (%): 0
  AE, SOC Resp: Dyspnoea exertional, patients n (%): 0
  AE, SOC Resp: Dyspnoea, patients n (%): 0
  SAE, SOC Card: Cardiac failure congestive, patients n (%): 0
[3]; SDD 10 mg QD 85 days, N = 28
  AE, SOC Card: Cardiac failure congestive, patients n (%): 1 (4)
  AE, SOC Card: Oedema peripheral, patients n (%): 1 (4)
  AE, SOC Genrl: Oedema peripheral, patients n (%): 5 (18)
  AE, SOC Metab: Oedema peripheral, patients n (%): 0
  AE, SOC Resp: Dyspnoea exertional, patients n (%): 0
  AE, SOC Resp: Dyspnoea, patients n (%): 0
  SAE, SOC Card: Cardiac failure congestive, patients n (%): 1 (4)
[3]; SDD 15 mg QD 85 days, N = 50
  AE, SOC Card: Cardiac failure congestive, patients n (%): 0
  AE, SOC Card: Oedema peripheral, patients n (%): 1 (2)
  AE, SOC Genrl: Oedema peripheral, patients n (%): 3 (6)
  AE, SOC Metab: Oedema peripheral, patients n (%): 0
  AE, SOC Resp: Dyspnoea exertional, patients n (%): 0
  AE, SOC Resp: Dyspnoea, patients n (%): 0
  SAE, SOC Card: Cardiac failure congestive, patients n (%): 0
[3]; SDD 30 mg QD 85 days, N = 14
  AE, SOC Card: Cardiac failure congestive, patients n (%): 1 (7)
  AE, SOC Card: Oedema peripheral, patients n (%): 0
  AE, SOC Genrl: Oedema peripheral, patients n (%): 3 (21)
  AE, SOC Metab: Oedema peripheral, patients n (%): 1 (7)
  AE, SOC Resp: Dyspnoea exertional, patients n (%): 0
  AE, SOC Resp: Dyspnoea, patients n (%): 1 (7)
  SAE, SOC Card: Cardiac failure congestive, patients n (%): 1 (7)
BEACON, ITT, BARD 20 mg (N = 1088), deaths at database lock
  Occurrence of Death: 4.0%
BEACON, ITT, BARD 20 mg (N = 1088), events through last date of contact
  Occurrence of ESRD: 4.0%
[19]
  Patient's first event: CV death, patients: 26 n
  Patient's first event: Chronic dialysis, patients: 40 n
  Patient's first event: End stage renal disease (ESRD), patients: 43 n
  Patient's first event: Renal death, patients: 2 n
  Patient's first event: Renal transplant, patients: 1 n
ITT N = 1088, adjudicated, on or before study termination
  Composite primary efficacy outcome (ESRD or CV death), patients: 69 n
ITT, All Patients N = 1088
  SAE Infections and infestations, patients: 79
ITT, BL ACR ≤ 300, eGFR > 20, BNP ≤ 200, N = 209
  SAE Infections and infestations, patients: 9
ITT, BL ACR ≤ 1000, eGFR > 20, Age ≤ 75, N = 368
  SAE Infections and infestations, patients: 20
Safety Population N = 1092, 20 mg once daily
  Treatment-emergent SAE: Infections and infestations, patients: 79 n
Final analysis
  Fatal heart failure events: three
human, in vivo
  Hy's Law cases: no Hy's Law cases were observed
  Increase in BNP from baseline, Mean±SD: 225 ± 598 pg/mL
  K^+ Retention: None
  Mean WK 24 ΔeGFR: 6.1 and 5.5 and 7.6
  Mean increase in diastolic blood pressure: 1.4 mmHg
  Mean increase in systolic blood pressure: 1.9 mmHg
  N of patients with WK 24 BNP change 25% to 100% Increase: 45
  N of patients with WK 24 BNP change <25% Increase: 84
  N of patients with WK 24 BNP change ≥100% Increase: 82
  QTc prolongation: not associated with QTc prolongation
  SAE Endocrine disorders, patients: 1
human, in vivo, 24 weeks
  QTcF interval, change from baseline, 25th quartile: -13 ms
  QTcF interval, change from baseline, 75th quartile: 10 ms
  QTcF interval, change from baseline, Mean (SD): −0.9 (19.2) msec
  QTcF interval, change from baseline, Range (min, max): −88, 69
  QTcF interval, change from baseline, median: -1 ms
  QTcF interval, observed, 25th quartile: 407 ms
  QTcF interval, observed, 75th quartile: 443 ms
  QTcF interval, observed, Mean (SD): 425.8 (26.5) msec
  QTcF interval, observed, median: 425 ms
[20]
  All-Cause Death, patients: 44
  ESRD, patients with event: 47
[21]
  All-Cause Death, patients: 20
  ESRD, patients with event: 38
[22]
  All-Cause Death, patients: 5
  ESRD, patients with event: 1
[23]
  All-Cause Death, patients: 11
  ESRD, patients with event: 9
[24]
  All-Cause Death, patients: 32
  ESRD, patients with event: 21
[25]
  All-Cause Death, patients: 14
  ESRD, patients with event: 12
[26]
  All-Cause Death, patients: 27
  ESRD, patients with event: 18
[27]
  All-Cause Death, patients: 35
  ESRD, patients with event: 35
Prior to clinical database lock (Mar. 4, 2013)
  Deaths confirmed as cardiovascular, patients: 29
clinical
  half-life: 48 to 60 h
